Consider 23 compounds from patent US20240261249A1, “NOVEL SQUARAMIDE DERIVATIVE AND USE THEREOF” (PUSAN NATIONAL UNIVERSITY INDUSTRY-UNIVERSITY COOPERATION …, priority 2021, published 2024).

In one test the test system is Phospho-eIF2α (Ser51). Briefly: Phospho-eIF2α (Ser51) Sandwich ELISA in K562 cells. The following applies: serum-free RPMI, 10 μM compound; for activity at 10 µM: Homo sapiens, K562, 6 h, control = 1, read-out: eIF2α phosphorylation, absorbance standardized to control (DMSO-treated) set to 1, at 10 μM. It counts as cell-based. On the procedure:
Pathscan Phospho-eIF2α (Ser51) Sandwich ELISA Kit #7286 from Cell signaling was used. The K562 cell line was cultured in serum-free RPMI medium at 37° C. in the presence of 5% CO2. Cells were treated with test compounds at a concentration of 10 μM. Six hours after compound treatment, the cells were lysed with a lysis buffer included in the kit to obtain 50 μg of protein by quantification. Afterwards, ELISA assay was performed according to the manufacturer's protocol to obtain absorbance. The absorbance for each obtained compound was standardized to a value of which the control (DMSO-treated) is set to 1.
A general note: In an ELISA, binding on a coated surface is turned into a signal by an enzyme label.

The subject of a further test is K562 cell line. Briefly: CCK-8 anti-proliferative assay, K562. Format: cell-based. Conditions: Homo sapiens, 72 h; K562, culture for 3 days, CCK-8, Table 2; read-out: IC50. On the procedure:
CCK-8 assay (cell counting kit-8 assay, Dojindo, Kumamoto, Japan) was performed. The K562 cell line was cultured in RPMI medium supplemented with 10% FBS and 1% ABAM at 37° C. in the presence of 5% CO2. Cells were treated with test compounds at concentrations of 0 μM, 1.25 μM, 2.5 μM, 5 μM, 10 μM, and 20 μM, respectively. After culture for 3 days, 10 μL of CCK-8 solution was treated and cultured for 4 hours. Subsequently, the absorbance was measured at 450 nm to obtain the IC50 value of each compound.
The experimental values for the K562 cell line are identical to biological Example 2.

Where only a bound is given, the exact number is not on record here.

As to `N#Cc1ccc(O[C@H]2CC[C@H](Nc3c(Nc4cccc(Cl)c4)c(=O)c3=O)CC2)cc1` [Compound 19, 4-(((1,4-trans)-4-((2-((3-Chlorophenyl)amino)-3,4-dioxocyclobut-1-en-1-yl)amino)cyclohexyl)oxy)benzonitrile], the activity at 10 µM with Phospho-eIF2α (Ser51) turned out to be 111%. Moreover, in the test on K562 cell line, the IC50 is more than 20 µM.
Turning to `CS(=O)(=O)c1ccc(O[C@H]2CC[C@H](Nc3c(Nc4cccc(C(F)(F)F)c4)c(=O)c3=O)CC2)cc1` [Compound 26, 3-(((1,4-trans)-4-(4-(Methylsulfonyl)phenoxy)cyclohexyl)amino)-4-((3-(trifluoromethyl)phenyl)amino)cyclobut-3-ene-1,2-dione], in the test with Phospho-eIF2α (Ser51), the activity at 10 µM came to 133%. Also, the IC50 with K562 cell line was more than 20 µM.
For `COc1cccc(Nc2c(N[C@H]3CC[C@H](Oc4ccc([N+](=O)[O-])cc4)CC3)c(=O)c2=O)c1` [Compound 35, 3-((3-Methoxyphenyl)amino)-4-(((1,4-trans)-4-(4-nitrophenoxy)cyclohexyl)amino)cyclobut-3-ene-1,2-dione], in that order: 105% and more than 20 µM.
In the case of `CS(=O)(=O)c1ccc(O[C@H]2CC[C@H](Nc3c(Nc4ccc(C(F)(F)F)cc4)c(=O)c3=O)CC2)cc1` [Compound 49, 3-(((1,4-trans)-4-(4-(Methylsulfonyl)phenoxy)cyclohexyl)amino)-4-((4-(trifluoromethyl)phenyl)amino)cyclobut-3-ene-1,2-dione], the activity at 10 µM in the test on Phospho-eIF2α (Ser51) stood at 102%. In addition, the IC50 in the test on K562 cell line was more than 20 µM.
On to `N#Cc1ccc(O[C@H]2CC[C@H](Nc3c(Nc4ccccc4F)c(=O)c3=O)CC2)cc1` [Compound 63, 4-(((1,4-trans)-4-((2-((2-Fluorophenyl)amino)-3,4-dioxocyclobut-1-en-1-yl)amino)cyclohexyl)oxy)benzonitrile], for which, in the test on Phospho-eIF2α (Ser51), the activity at 10 µM turned out to be 75%.
For the compound `O=c1c(Nc2ccccc2F)c(N[C@H]2CC[C@H](Oc3ccc([N+](=O)[O-])cc3)CC2)c1=O` [Compound 64, 3-((2-Fluorophenyl)amino)-4-(((1,4-trans)-4-(4-nitrophenoxy)cyclohexyl)amino)cyclobut-3-ene-1,2-dione], the activity at 10 µM in the test with Phospho-eIF2α (Ser51) stood at 133%.
As to `CS(=O)(=O)c1ccc(O[C@H]2CC[C@H](Nc3c(Nc4ccccc4F)c(=O)c3=O)CC2)cc1` [Compound 65, 3-((2-Fluorophenyl)amino)-4-(((1,4-trans)-4-(4-(methylsulfonyl)phenoxy)cyclohexyl)amino)cyclobut-3-ene-1,2-dione], the “eIF2α phosphorylation, absorbance standardized to control (DMSO-treated) set to 1, at 10 μM” value in the test with Phospho-eIF2α (Ser51) (6 hours, control = 1) amounted to 1.07.
Consider `O=c1c(Nc2ccccc2Cl)c(N[C@H]2CC[C@H](Oc3ccc(C(F)(F)F)cc3)CC2)c1=O` [Compound 66, 3-((2-Chlorophenyl)amino)-4-(((1,4-trans)-4-(4-(trifluoromethyl)phenoxy)cyclohexyl)amino)cyclobut-3-ene-1,2-dione], for which, in the test on Phospho-eIF2α (Ser51), the activity at 10 µM was 159%.
Same read-out and setting: the same measure for `N#Cc1ccc(O[C@H]2CC[C@H](Nc3c(Nc4ccccc4Cl)c(=O)c3=O)CC2)cc1` [Compound 67, 4-(((1,4-trans)-4-((2-((2-Chlorophenyl)amino)-3,4-dioxocyclobut-1-en-1-yl)amino)cyclohexyl)oxy)benzonitrile]: 199%; for `O=c1c(Nc2ccccc2Cl)c(N[C@H]2CC[C@H](Oc3ccc([N+](=O)[O-])cc3)CC2)c1=O` [Compound 68, 3-((2-Chlorophenyl)amino)-4-(((1,4-trans)-4-(4-nitrophenoxy)cyclohexyl)amino)cyclobut-3-ene-1,2-dione]: 209%.
On the same count and under the same terms, under `CS(=O)(=O)c1ccc(O[C@H]2CC[C@H](Nc3c(Nc4ccccc4Cl)c(=O)c3=O)CC2)cc1` [Compound 69, 3-((2-Chlorophenyl)amino)-4-(((1,4-trans)-4-(4-(methylsulfonyl)phenoxy)cyclohexyl)amino)cyclobut-3-ene-1,2-dione] stands 101%.
Regarding `O=c1c(Nc2ccccc2C(F)(F)F)c(N[C@H]2CC[C@H](Oc3ccc(C(F)(F)F)cc3)CC2)c1=O` [Compound 70, 3-(((1,4-trans)-4-(4-(Trifluoromethyl)phenoxy)cyclohexyl)amino)-4-((2-(trifluoromethyl)phenyl)amino)cyclobut-3-ene-1,2-dione], the activity at 10 µM in the test on Phospho-eIF2α (Ser51) is 194%. Besides, the IC50 in the test on K562 cell line was more than 20 µM.
For `N#Cc1ccc(O[C@H]2CC[C@H](Nc3c(Nc4ccccc4C(F)(F)F)c(=O)c3=O)CC2)cc1` [Compound 71, 4-(((1,4-trans)-4-((3,4-Dioxo-2-((2-(trifluoromethyl)phenyl)amino)cyclobut-1-en-1-yl)amino)cyclohexyl)oxy)benzonitrile], in the test with Phospho-eIF2α (Ser51), the activity at 10 µM turned out to be 180%. Besides, the IC50 with K562 cell line is more than 20 µM.
With `O=c1c(Nc2ccccc2C(F)(F)F)c(N[C@H]2CC[C@H](Oc3ccc([N+](=O)[O-])cc3)CC2)c1=O` [Compound 72, 3-(((1,4-trans)-4-(4-Nitrophenoxy)cyclohexyl)amino)-4-((2-(trifluoromethyl)phenyl)amino)cyclobut-3-ene-1,2-dione], in the test on Phospho-eIF2α (Ser51), the activity at 10 µM came to 149%. Further, in the test with K562 cell line, the IC50 was more than 20 µM.
Consider `CS(=O)(=O)c1ccc(O[C@H]2CC[C@H](Nc3c(Nc4ccccc4C(F)(F)F)c(=O)c3=O)CC2)cc1` [Compound 73, 3-(((1,4-trans)-4-(4-(Methylsulfonyl)phenoxy)cyclohexyl)amino)-4-((2-(trifluoromethyl)phenyl)amino)cyclobut-3-ene-1,2-dione], for which the activity at 10 µM in the test on Phospho-eIF2α (Ser51) was 84%.
For `CC(C)(C)c1ccccc1Nc1c(N[C@H]2CC[C@H](Oc3ccc(C#N)cc3)CC2)c(=O)c1=O` [Compound 75, 4-(((1,4-trans)-4-((2-((2-(tert-Butyl)phenyl)amino)-3,4-dioxocyclobut-1-en-1-yl)amino)cyclohexyl)oxy)benzonitrile], the activity at 10 µM in the test with Phospho-eIF2α (Ser51) stood at 162%.
On the same count and under the same terms, the same measure for `CC(C)(C)c1ccccc1Nc1c(N[C@H]2CC[C@H](Oc3ccc([N+](=O)[O-])cc3)CC2)c(=O)c1=O` [Compound 76, 3-((2-(tert-Butyl)phenyl)amino)-4-(((1,4-trans)-4-(4-nitrophenoxy)cyclohexyl)amino)cyclobut-3-ene-1,2-dione]: 139%; for `COc1ccccc1Nc1c(N[C@H]2CC[C@H](Oc3ccc(C(F)(F)F)cc3)CC2)c(=O)c1=O` [Compound 78, 3-((2-Methoxyphenyl)amino)-4-(((1,4-trans)-4-(4-(trifluoromethyl)phenoxy)cyclohexyl)amino)cyclobut-3-ene-1,2-dione]: 213%; for `COc1ccccc1Nc1c(N[C@H]2CC[C@H](Oc3ccc(C#N)cc3)CC2)c(=O)c1=O` [Compound 79, 4-(((1,4-trans)-4-((2-((2-Methoxyphenyl)amino)-3,4-dioxocyclobut-1-en-1-yl)amino)cyclohexyl)oxy)benzonitrile]: 238%.
For `COc1ccccc1Nc1c(N[C@H]2CC[C@H](Oc3ccc([N+](=O)[O-])cc3)CC2)c(=O)c1=O` [Compound 80, 3-((2-Methoxyphenyl)amino)-4-(((1,4-trans)-4-(4-nitrophenoxy)cyclohexyl)amino)cyclobut-3-ene-1,2-dione], in the test with Phospho-eIF2α (Ser51), the activity at 10 µM worked out at 133%.
Still for that read-out and setting: under `COc1ccccc1Nc1c(N[C@H]2CC[C@H](Oc3ccc(S(C)(=O)=O)cc3)CC2)c(=O)c1=O` [Compound 81, 3-((2-Methoxyphenyl)amino)-4-(((1,4-trans)-4-(4-(methylsulfonyl)phenoxy)cyclohexyl)amino)cyclobut-3-ene-1,2-dione] stands 152%; under `COc1ccccc1Nc1c(N[C@H]2CC[C@H](Oc3ccc(S(N)(=O)=O)cc3)CC2)c(=O)c1=O` [Compound 82, 4-(((1,4-trans)-4-((2-((2-Methoxyphenyl)amino)-3,4-dioxocyclobut-1-en-1-yl)amino)cyclohexyl)oxy)benzenesulfonamide], 136%.
With `N#Cc1cc(Nc2c(N[C@H]3CC[C@H](Oc4ccc([N+](=O)[O-])cc4)CC3)c(=O)c2=O)cc(C(F)(F)F)c1` [Compound 85, 3-((2-(((1,4-trans)-4-(4-Nitrophenoxy)cyclohexyl)amino)-3,4-dioxocyclobut-1-en-1-yl)amino)-5-(trifluoromethyl)benzonitrile], the activity at 10 µM with Phospho-eIF2α (Ser51) came out at 116%. Moreover, the IC50 in the test with K562 cell line was more than 20 µM.

As a reminder, the IC50 is the concentration needed to halve the response being measured.
